Earlier results as cited in publication PMC8915598.

Assay: not told

## NC(=O)c1ccc(N)cc1
  log partition octanol / water: -0.41 log10

## CC(=O)Nc1ccc(Cl)cc1
  log partition octanol / water: 2.12 log10
